# Experiment: gradient 5% acetonitrile 3 min, to 50% in 2 min, to 85% in 15 min, held 3 min, 100 µL/min
# Settings: column: Zorbax Extend-C18 2.1 x 50 mm; eluents: water / acetonitrile, 0.1% formic acid
# Method in brief: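 The system's dead and dwell volumes were 40 μL and 900 μL, with a Zorbax Extend-C18 column (2.1 × 50 mm, 1.8 μm) run at 100 μL/min in water and acetonitrile containing 0.1% formic acid each. Pure standards were analyzed in mixtures of ~100 molecules by HPLC–quadrupole time-of-flight mass spectrometry in positive and negative ionization mode. Retention time was assigned from computationally picked, manually inspected adduct peaks.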
row,SMILES,RP-LC retention time
1,Cc1ccc(NC(=O)C2CCN(S(=O)(=O)c3cn(C(C)C)cn3)CC2)cc1F,823 s
2,Cn1c(=O)sc2cc(S(=O)(=O)N3CCC(C(=O)Nc4ccc5c(c4)OCCO5)CC3)ccc21,812 s
3,CCOc1nc2c(c(C)nn2-c2ccccc2)c(C)c1CCC(=O)N1CCN(c2ccccn2)CC1,822 s
4,CCCn1cc(C(=O)NCc2cccs2)c2cccnc21,799 s
5,Cc1ccnc(OCC(=O)Nc2cc(C)on2)n1,612 s
6,CC1CCCCN1CCN(CCC(=O)N1CCNCC1)C(=O)c1ccc(C(F)(F)F)cc1 (stereo not drawn),569 s
7,O=C(CSc1nnnn1-c1ccccc1)NCCc1ccc2c(c1)OCCO2,745 s
8,Cc1noc(-c2cccn2Cc2cccc(Cl)c2)n1,1110 s
9,Cc1ccc(NC(=O)NCCn2c(C(F)(F)F)nc3cccnc32)cc1F,786 s
10,Cc1ccc(C(=O)N2CCCCCCN(C)C(=O)[C@@H]3CCC[C@@H]32)s1,912 s
11,CCCS(=O)(=O)c1nc2ccc(NS(=O)(=O)c3ccc(C(C)(C)C)cc3)cc2s1,1110 s
12,Brc1ccc(Nc2nc(-c3ccc4c(c3)OCO4)cs2)nc1,1150 s
13,CCn1cc(C(=O)NCc2ccc(F)cc2)c(S(=O)(=O)N2CCSCC2)n1,915 s
14,Cc1nn(CC(=O)NCCCN2CCOCC2)c(=O)c2nc(-c3ccccc3)sc12,615 s
15,COc1ccc(Cc2nn3c(Cc4ccc(OC)cc4)nnc3s2)cc1,913 s
16,CCOc1ccc2nc(Nc3ncc4c(n3)CC(c3cccs3)CC4=O)nc(C)c2c1 (stereo not drawn),795 s
17,COc1cccc(-c2noc(Cn3ccn(-c4c(C)cccc4C)c(=O)c3=O)n2)c1,872 s
18,CC(=O)N1C[C@@H](C(=O)NCCc2c(C)noc2C)[C@H](c2nc(C)no2)C1,609 s
19,Cc1cc2[nH]c(C(=O)Nc3c(F)cccc3F)c(CN3CCOCC3)c2s1,675 s
20,CCC1CN(C(=O)Nc2ccc(OC)cc2)c2ccccc2O1 (stereo not drawn),968 s
21,O=C(CNC(=O)C1COc2ccccc2O1)NCCc1c[nH]c2ccccc12 (stereo not drawn),780 s
22,O=C(c1ccco1)N1CCN(c2ncnc3sc(-c4ccccc4)cc23)CC1,840 s

row,SMILES,RP-LC retention time
1,COc1cccc(CNC(=O)C2CCN(c3ccc(SCc4ccccc4)nn3)CC2)c1,758 s
2,CCOC(=O)C1CCN(c2ncccc2-c2nnc(-c3ccccc3)o2)CC1,1010 s
3,CCS(=O)(=O)Nc1ccc2nc(N3CCN(c4ccc(OC)cc4)CC3)cc(C(=O)O)c2c1,626 s
4,CCC(=O)Nc1c(C)noc1/C=C\c1ccc(S(=O)(=O)N2CCCCC2C)cc1 (stereo not drawn),915 s
5,Cc1nnc(-c2ccc3ccn(CC(=O)NCc4ccc(N(C)C)cc4)c3c2)o1,632 s
6,Cc1ccc(C(=O)N2CCC(n3c(-c4ccoc4)nc4cccnc43)C2)cc1C (stereo not drawn),806 s
7,COc1cc(NC(=O)Cc2csc3nc(-c4ccccc4)cn23)cc(OC)c1OC,749 s
8,Cc1ccc(S(=O)(=O)N2CCC(n3c(-c4ccoc4)nc4cccnc43)C2)cc1F (stereo not drawn),910 s
9,COC(=O)c1ccc(NC(=O)C2CC(=O)N(c3ccc4c(c3)CCN4C(C)=O)C2)cc1 (stereo not drawn),700 s
10,Cc1nn(-c2ccccc2)cc1C(=O)N1CCC(CC(=O)NC2CC2)CC1,667 s
11,CCc1nccn1Cc1nc(-c2cccc(Cl)c2)no1,667 s
12,O=C1CCCc2cc(S(=O)(=O)N3CCC(C(=O)NCCc4ccccc4)CC3)ccc2N1,735 s
13,Cc1noc(CN2CCN(C3CCN(Cc4cc(C(F)(F)F)ccc4Cl)C3)C2=O)n1 (stereo not drawn),660 s
14,O=C(c1nnc(-c2ccc(S(=O)(=O)N3CCCCC3)cc2)o1)N1CCCCC1,956 s
15,CCc1ccc(OCc2nc(CCN(C)C(=O)Nc3ccc(OC)cc3)no2)cc1,949 s
16,O=C(NCc1cccs1)C1CCCN(c2cnc3nccnc3c2)C1 (stereo not drawn),661 s
17,CCc1nnc(-c2ccc3ccn(CC(=O)Nc4cc(OC)ccc4OC)c3c2)o1,770 s
18,Cc1nn(Cc2ccc(C(=O)NC(C)C)cc2)c(C)c1S(=O)(=O)N1CCC(C)CC1,880 s
19,Cc1noc(-c2ccc(-n3ncc(C(=O)NC4CC4)c3C)nc2)n1,709 s
20,Cc1nn(CC(=O)NCCN(C)C)c(=O)c2cc(-c3ccccc3)nn12,625 s
21,Cc1cc(C)cc(OCC(=O)N2CCCCC2CCN2CCOCC2)c1 (stereo not drawn),668 s
22,CC(NC(=O)c1ccc(-c2ccnc(N3CCCCC3)n2)cc1)c1cccnc1 (stereo not drawn),651 s

row,SMILES,RP-LC retention time
1,O=C(Cn1cnc2c(-c3ccc(Cl)cc3)csc2c1=O)NC1CCCC1,933 s
2,CCn1cnc2ccc(-c3noc(CNC(=O)c4ccccc4)n3)cc21,620 s
3,O=C(Nc1cc(F)cc(F)c1)c1c(O)c2cccnc2n(-c2ccccc2)c1=O,709 s
4,Cc1ccccc1S(=O)(=O)Nc1ccc(C(=O)N2CCCC2C(=O)NCCC(C)C)cc1 (stereo not drawn),807 s
5,COc1cc(C(=O)NC2C=CS(=O)(=O)C2)cc(OC)c1OC (stereo not drawn),615 s
6,O=C(Cn1c(=O)cnc2cc(C(=O)NC3CC3)ccc21)Nc1ccccc1C(F)(F)F,646 s
7,CC(C)c1nnc(NC(=O)C2CCN(C(=O)c3ccccc3F)CC2)s1,727 s
8,COc1ccc2c(C)c(CCC(=O)N[C@@H](C(=O)O)C(C)C)c(=O)oc2c1C,746 s
9,Fc1cccc(CN2CC[C@@H]3CN(Cc4ccccc4)[C@@H]3C2)c1,624 s
10,O=C(O)c1cc(-c2ccccc2)nc2ccccc12,849 s
11,COc1cc(NC(=O)CN2C(=O)CCc3cc(Br)ccc32)cc(OC)c1,898 s
12,CC(C)n1cnc(S(=O)(=O)N2CCC(C(=O)N3CCc4ccccc43)CC2)c1,769 s
13,COc1ccccc1CCc1nc(C2CC(=O)N(C3CCCCC3)C2)no1 (stereo not drawn),989 s
14,CCOc1ccccc1-c1noc(Cn2c(=O)n(Cc3ccc(OC)cc3)c(=O)c3sccc32)n1,1080 s
15,COc1ccc(-c2nnc3n2CCN(Cc2cnn(C)c2C)C3)cc1,583 s
16,CCn1cc(C(=O)Nc2cccc(C)c2C)c2cccnc21,854 s
17,c1ccc(O[C@H]2CN(C3CCNCC3)[C@H]2c2ccncc2)cc1,552 s
18,Cc1ccc(S(=O)(=O)N(C)CC2CCOC2)cc1Cl (stereo not drawn),895 s
19,O=C(NC1CCc2ccccc21)C1CCN(C(=O)c2ncn3c2COC(c2ccc(F)cc2)C3)CC1 (stereo not drawn),792 s
20,O=C(c1ccsc1)N1CCCC(c2nncn2-c2ccccc2)C1 (stereo not drawn),667 s
21,Cc1ccccc1CNC(=O)c1cn(-c2ccc(-c3nc(C4CC4)no3)cn2)cn1,973 s
22,C=CCn1c(C)c(CC(=O)Nc2cccc(C)c2)c(=O)n2nc(-c3ccc(C)cc3)nc12,989 s

row,SMILES,RP-LC retention time
1,CN1CC(=O)N(CC(=O)Nc2ccc(Cl)c(C(F)(F)F)c2)c2ccccc2C1=O,826 s
2,CCOc1ccc(S(=O)(=O)Nc2ccc(-c3cn4ccc(C)nc4n3)cc2)c(OCC)c1,691 s
3,CCOC(=O)c1nc(Nc2cccc(SC)c2)c2ccccc2n1,940 s
4,FC(F)(F)c1cc(-c2cccs2)n(-c2nc(-c3ccccc3)cs2)n1,1450 s
5,COCCN1CCn2cc(S(=O)(=O)Nc3ccc(C)cc3)cc2C1=O,715 s
6,O=C(Nc1ccc(-n2cnc(C(=O)N3CCC4(CC3)OCCO4)c2)nc1)C1CC1,631 s
7,Cc1cc(S(=O)(=O)[C@H]2CS(=O)(=O)C[C@@H]2N2CCN(c3ccccc3F)CC2)ccc1F,1040 s
8,O=C(Nc1ccccc1)c1csc(-c2ccc(N3CCCC3)nc2)n1,728 s
9,Cc1c(Cl)cccc1NC(=O)Cn1cnc2c(sc3nc(-c4ccccc4)ccc32)c1=O,1070 s
10,O=C(NCc1ccco1)c1c(O)c2cccnc2n(-c2ccc(F)cc2)c1=O,1280 s
11,CCOC(=O)c1ccc(NC(=O)N(Cc2cc(=O)[nH]c3ccccc23)C(C)C)cc1,772 s
12,CCS(=O)(=O)c1ccc2c(c1)N(Cc1nc(-c3cccc(OC)c3)no1)C(=O)CO2,883 s
13,CC(C)C(=O)N1CCCCCNC(=O)[C@@H]2CCCC[C@@H]21,700 s
14,Cc1[nH]c(C(=O)N2CCC(CC(=O)NCc3ccccc3)CC2)c(C)c1C(=O)OC(C)C,802 s
15,COc1ccc(C(=O)Nc2nc3c(s2)Cc2c(Br)ccc(OC)c2-3)cc1OC,1100 s
16,CC(=O)N1c2ccc(S(=O)(=O)N3CCCCC3)cc2CC1C(=O)N1CCCC1 (stereo not drawn),743 s
17,CCS(=O)(=O)N1CCCC(c2nc(C(C)C)no2)CCNC(=O)CC1 (stereo not drawn),686 s
18,CSc1ccc(NC(=O)NC2CCN(c3cc(C)cc(C)c3)C2=O)cc1 (stereo not drawn),916 s
19,CCc1noc(NC(C)=O)c1-c1ccc(C)c(S(=O)(=O)Nc2ccc(OC)cc2OC)c1,794 s
20,O=C(NCC1CCN(S(=O)(=O)C2CC2)CC1)c1cnc2ccccc2n1,704 s
21,O=C(CN1CCC(c2nc(-c3cccs3)no2)CC1)N1CCN(c2ccccc2)CC1,702 s
22,CCCC(=O)N1CCC(C(=O)Nc2ccc(OCC)cc2)CC1,718 s
